Tests used:
[1] = system: rat small intestine powder (enzyme solution); assay: Test Example 2 purine nucleotide metabolism inhibitory activity (inosine monophosphate substrate, HPLC); type: biochemical; details: 37° C., 30 minutes
Protocol: Ca(OH)2 (Inoue Calcium Corporation) as a calcium source, Mg(OH)2 (Tomita Pharmaceutical Co., Ltd.) as a magnesium source, KOH (NIPPON SODA CO., LTD.) as a potassium source, NaOH (Tosoh Corporation) as a sodium source were placed in a 50 mL PP tube (IWAKI) at molar ratios of the minerals shown in Table 2. Then a commercially available phytic acid solution (product name: phytic acid (IP6), TSUNO Food Industrial co., ltd.) 0.426 mL (containing 0.296 g of phytic acid) was placed therein. Distilled water (Otsuka Pharmaceutical Factory, Inc.) was added thereto to make up the volume to 30 mL. The mixture was stirred for 30 seconds using a vortex mixer, followed by ultrasonication (ASONE) for 60 seconds to prepare a test solution containing phytin with various mineral compositions.
As a positive control, a test solution containing a commercially available phytin (phytin (IP6), TSUNO Food Industrial co., ltd.) was prepared at the same concentration of phytic acid as the other test solutions.
A 100 mg/mL of solution of rat small intestine powder (Clare Japan, Inc.) in the assay buffer was used as an enzyme solution. Inosine monophosphate (Sigma-Aldrich) was diluted with the assay buffer to the concentration of 9 mM to prepare a substrate solution. Enzymatic reaction was performed using a 96 well plate (Thermo Fisher Scientific) in the following manner. […]

[2] = Test Example 4 stability (deliquescence); type: physicochemical; parameters: key: “Deliquesced” refers to a change where the sample completely liquefied to become starch syrup-like; “Partially-deliquesced” refers to a change where a part of the sample deliquesced or solidified.; “No change” refers to a no change in state of the sample; details: 200 mg, 25° C., humidity 75.3%, 64 hours
Protocol: Ca(OH)2 (Inoue Calcium Corporation) as a calcium source, Mg(OH)2 (Tomita Pharmaceutical Co., Ltd.) as a magnesium source, KOH (NIPPON SODA CO., LTD.) as a potassium source, NaOH (Tosoh Corporation) as a sodium source were placed in a 50 mL PP tube (IWAKI) at the molar ratios of minerals shown in Table 3. Then a commercially available phytic acid solution (product name: phytic acid (IP6), TSUNO Food Industrial co., ltd.) 0.426 mL (containing 0.296 g of phytic acid) was placed therein. Distilled water (Otsuka Pharmaceutical Factory, Inc.) was added thereto to make up the volume to 30 mL. The mixture was stirred for 30 seconds using a vortex mixer, followed by ultrasonication (ASONE) for 60 seconds. This operation of stirring and ultrasonication was repeated three times in total. Then the mixture was adjusted to pH 4.0±0.2 with hydrochloric acid and pre-frozen at −80° C. The pre-frozen mixture was freeze-dried by using a freeze dryer to provide a completely powdered phytin. The completely powdered phytin was used as a sample.
As positive controls, a sample of phytic acid (powder) prepared following the above procedure without adding any mineral component, and a commercially available phytic acid powder product (product name: Powdered phytic acid, FUSO CHEMICAL CO., LTD.) were used. […]

Question: With `O=P(O)(O)O[C@H]1[C@H](OP(=O)(O)O)[C@@H](OP(=O)(O)O)[C@H](OP(=O)(O)O)[C@@H](OP(=O)(O)O)[C@H]1OP(=O)(O)O` [Phytic acid (PA), phytic acid] as the compound, how does the enzyme inhibitory activity [1] read?
Answer: The enzyme inhibitory activity was “around 30%”.

Question: What about the Deliquescence [2] of the same compound?
Answer: The Deliquescence was “Deliquesced”.

Question: And the Deliquescence ([2]; listed as phytic acid sample)?
Answer: Its Deliquescence is “deliquesced”.

From patent US20250042924A1, “WATER-SOLUBLE PHYTIN” (OTSUKA PHARMACEUTICAL CO., LTD., priority 2021, published 2025)
